How the values were obtained:
[1] = tested on: C. albicans strains CAI4 and M70; experiment: Isolation of spontaneous caspofungin-resistant mutants by direct selection on solid media containing caspofungin; type: cell-based, Candida albicans; settings: both strains CAI4 and M70; YPD plates with 4 μg/ml caspofungin (forty times the MIC)
Method: (§1) Spontaneous mutants of C. albicans strains CAI4 and M70 resistant to caspofungin were isolated by direct selection on solid growth media containing 4 μg/ml (forty times the MIC) caspofungin. The frequency of formation of spontaneous caspofungin-resistant derivatives for both strains was <10^−8 mutants per viable cell. For both strains, the formation of rare shrunken slow-growing colonies on the plates with caspofungin was observed. […] After prolonged incubation for more than 10 days, a small fraction of small shrunken colonies gave rise to smooth fast-growing derivatives which were able to propagate on caspofungin-containing media after reinoculation. Only one such derivative per individual plate/culture was saved and used for further analysis. In total, 35 and 50 isolates with reduced susceptibility to caspofungin were isolated for strains CAI4 and M70, respectively. […] Details of the isolation procedure are set forth in Example 2.
Spontaneous caspofungin-resistant mutants of C. albicans strains CAI4 and M70 were isolated by plating 100 ul (˜10^8 cells) of an 18 h liquid YPD culture on YPD plates containing 4 μg/ml caspofungin. Serial dilutions of the overnight cultures were plated on the YPD plates without antibiotic selection to precisely determine starting colony counts. Selection plates were incubated for 10-14 days at 30° C. […]

[2] = tested on: C. albicans strains CAI4 and M70, laboratory-derived isolates with reduced susceptibility; experiment: In vitro caspofungin susceptibility testing, liquid microbroth dilution assay in RPMI-1640 (NCCLS M27-A2); type: cell-based; settings: Candida albicans; all laboratory-derived isolates (35 from CAI4, 50 from M70) selected on 4 μg/ml caspofungin
Method: as §1
C. albicans strain CAI4 was purchased from ATCC (ATCC, Manassas, Va.). C. albicans strain M70 was from the Merck culture collection (MRL, Rahway, N.J.). Strains were grown on yeast extract-peptone-dextrose (YPD) medium (1% yeast extract, 2% Bacto Peptone, 2% dextrose). For growth of strain CAI4, YPD medium was supplemented by uridine (Sigma-Aldrich, St. Louis, Mo.) at 25 mg/ml. Caspofungin (Merck, Rahway, N.J.) was added directly to YPD at 4 μg/ml. […]

`CC[C@H](C)C[C@H](C)CCCCCCCCC(=O)N[C@H]1C[C@@H](O)[C@@H](NCCN)NC(=O)[C@@H]2[C@@H](O)CCN2C(=O)[C@H]([C@H](O)CCN)NC(=O)[C@H]([C@H](O)[C@@H](O)c2ccc(O)cc2)NC(=O)[C@@H]2C[C@@H](O)CN2C(=O)[C@H]([C@@H](C)O)NC1=O` [caspofungin] was tested, and the “frequency of formation of spontaneous caspofungin-resistant derivatives” value [1] was < 10^−8 mutants per viable cell and the MIC [2] was greater than 16 µg/mL.

Reference: patent US10934577B2, “Assays for resistance to echinocandin-class drugs” (priority 2005, dated 2021)
